Patent US11306101B2 (Celgene Corporation, priority 2019, dated 2022)

Target: T1, CK1α (Homo sapiens, UniProt P48729+Q96SW2)
T1 construct: expressed in transfected cells
Experiment: CK1α ePL degradation assay in MDS-L cells
Assay type: cell-based
Settings: MDS-L cells expressing ePL-tagged CK1α; for DC50: concentration giving 50% CK1α degradation vs DMSO control; for Y: lowest measured CK1α level normalized to DMSO control
Method: The following is an example of an assay that can be used to determine the CK1α degradation activity of Isoindolinone Carboxamide Compounds in a cell line, for example, the MDS-L cell line.
Compounds were dispensed by an acoustic dispenser (ATS acoustic transfer system from EDC Biosystems) into a 384-well in a 10 point dose-response curve using 3-fold dilutions starting at 10 μM and going down to 0.0005 μM in DMSO. […] Assay plates were incubated at 37° C. with 5% CO2 for the indicated times. At the different time points, 25 μL of the InCELL Hunter™ Detection Reagent Working Solution (catalog number 96-0002, DiscoverX, Fremont, Calif.) was added to each well and incubated at RT for 30 min protected from light. After 30 min, luminescence was read on a PHERAstar luminometer (BMG LABTECH, Cary, N.C.).
CK1α levels in compound-treated wells were normalized to that of DMSO control and expressed as percent of control (PoC) (y).
The lowest measured CK1α level normalized to DMSO control in response to compound treatment, termed Y value, was used to characterize the compound-mediated CK1α degradation efficiency.

T1 sequence (P48729 whole entry): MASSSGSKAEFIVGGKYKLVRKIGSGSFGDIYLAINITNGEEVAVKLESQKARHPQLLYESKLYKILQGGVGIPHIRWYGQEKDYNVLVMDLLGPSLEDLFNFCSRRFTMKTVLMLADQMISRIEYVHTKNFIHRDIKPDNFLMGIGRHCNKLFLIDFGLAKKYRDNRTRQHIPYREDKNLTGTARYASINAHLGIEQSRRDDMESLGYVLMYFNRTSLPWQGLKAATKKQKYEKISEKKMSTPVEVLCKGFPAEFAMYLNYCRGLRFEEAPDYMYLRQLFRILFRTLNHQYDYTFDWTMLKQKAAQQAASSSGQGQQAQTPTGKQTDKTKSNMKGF
T1 sequence (Q96SW2 whole entry): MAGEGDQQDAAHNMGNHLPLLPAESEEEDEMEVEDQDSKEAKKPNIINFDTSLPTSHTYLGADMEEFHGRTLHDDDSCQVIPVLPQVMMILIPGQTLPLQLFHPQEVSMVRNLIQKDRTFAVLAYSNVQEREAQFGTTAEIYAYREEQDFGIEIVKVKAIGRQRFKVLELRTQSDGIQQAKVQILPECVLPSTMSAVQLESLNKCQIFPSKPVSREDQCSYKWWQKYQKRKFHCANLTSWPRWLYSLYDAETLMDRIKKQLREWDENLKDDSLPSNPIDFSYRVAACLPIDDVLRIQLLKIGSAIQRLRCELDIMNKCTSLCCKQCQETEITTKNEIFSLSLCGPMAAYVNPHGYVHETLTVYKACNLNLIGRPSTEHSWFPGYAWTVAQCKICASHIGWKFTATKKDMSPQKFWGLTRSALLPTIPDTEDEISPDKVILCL
T1 sequence (Q16531 whole entry partner): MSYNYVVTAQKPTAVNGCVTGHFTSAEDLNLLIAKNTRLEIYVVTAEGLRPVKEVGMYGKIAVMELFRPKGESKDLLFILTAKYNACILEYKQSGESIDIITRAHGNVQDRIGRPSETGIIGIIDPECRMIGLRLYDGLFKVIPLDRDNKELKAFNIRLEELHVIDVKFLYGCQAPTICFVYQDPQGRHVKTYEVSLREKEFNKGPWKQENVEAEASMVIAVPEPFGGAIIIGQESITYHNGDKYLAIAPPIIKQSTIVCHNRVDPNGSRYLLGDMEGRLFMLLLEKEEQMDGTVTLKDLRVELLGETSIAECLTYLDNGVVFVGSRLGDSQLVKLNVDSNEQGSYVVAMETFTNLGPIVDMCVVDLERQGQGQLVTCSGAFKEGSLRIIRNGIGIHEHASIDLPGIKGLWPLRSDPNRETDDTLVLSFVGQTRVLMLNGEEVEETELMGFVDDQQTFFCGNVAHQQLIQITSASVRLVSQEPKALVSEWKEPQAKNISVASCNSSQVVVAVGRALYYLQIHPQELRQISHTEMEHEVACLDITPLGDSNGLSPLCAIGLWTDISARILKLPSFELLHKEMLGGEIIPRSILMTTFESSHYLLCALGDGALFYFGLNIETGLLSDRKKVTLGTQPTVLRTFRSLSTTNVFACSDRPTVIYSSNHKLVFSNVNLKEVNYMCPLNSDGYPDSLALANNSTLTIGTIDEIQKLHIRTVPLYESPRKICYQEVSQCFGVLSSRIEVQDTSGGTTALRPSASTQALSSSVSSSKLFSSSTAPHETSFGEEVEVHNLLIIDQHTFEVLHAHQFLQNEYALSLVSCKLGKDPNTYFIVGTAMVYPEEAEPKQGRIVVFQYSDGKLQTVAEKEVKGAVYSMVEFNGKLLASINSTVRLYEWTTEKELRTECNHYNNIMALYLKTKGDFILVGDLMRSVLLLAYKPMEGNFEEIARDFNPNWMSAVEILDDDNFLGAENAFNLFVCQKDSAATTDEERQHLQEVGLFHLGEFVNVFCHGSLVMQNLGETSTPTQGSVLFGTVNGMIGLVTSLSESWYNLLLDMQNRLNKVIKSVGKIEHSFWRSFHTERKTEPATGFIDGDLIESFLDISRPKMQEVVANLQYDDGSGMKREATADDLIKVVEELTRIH

SMILES	DC50	Y
CC1([C@@H](NC(=O)c2ccc3c(c2)CN(C2CCC(=O)NC2=O)C3=O)C(F)(F)F)CCC1 (stereo partly drawn) [Example 74, 2-(2,6-dioxopiperidin-3-yl)-1-oxo-N-((R)-2,2,2-trifluoro-1-(1-methylcyclobutyl)ethyl)isoindoline-5-carboxamide]	< 100 nM	* (a Y value (shown as *) of 0<Y≤20%)
O=C1CCC(N2Cc3cc(C(=O)N[C@@H](C(F)(F)F)C4(C(F)(F)F)CC4)ccc3C2=O)C(=O)N1 (stereo partly drawn) [Example 75, 2-(2,6-dioxopiperidin-3-yl)-1-oxo-N-((R)-2,2,2-trifluoro-1-(1-(trifluoromethyl)cyclopropyl)ethyl)isoindoline-5-carboxamide]	100 to 500 nM	** (a Y value (shown as**) of 20%<Y≤35%)
O=C1CCC(N2Cc3cc(C(=O)N[C@H](c4ccc(F)cn4)C(F)(F)F)ccc3C2=O)C(=O)N1 (stereo partly drawn) [Example 76, 2-(2,6-dioxopiperidin-3-yl)-1-oxo-N-((R)-2,2,2-trifluoro-1-(5-fluoropyridin-2-yl)ethyl)isoindoline-5-carboxamide]	< 100 nM	** (a Y value (shown as**) of 20%<Y≤35%)
O=C1CCC(N2Cc3cc(C(=O)N[C@H](c4ccc(F)cc4C(F)(F)F)C(F)(F)F)ccc3C2=O)C(=O)N1 (stereo partly drawn) [Example 77, 2-(2,6-dioxopiperidin-3-yl)-1-oxo-N-((R)-2,2,2-trifluoro-1-(4-fluoro-2-(trifluoromethyl)phenyl)ethyl)isoindoline-5-carboxamide]	< 100 nM	* (a Y value (shown as *) of 0<Y≤20%)
CC1([C@@H](NC(=O)c2ccc3c(c2)CN(C2CCC(=O)NC2=O)C3=O)C(F)(F)F)CC1 (stereo partly drawn) [Example 78, 2-(2,6-dioxopiperidin-3-yl)-1-oxo-N-((R)-2,2,2-trifluoro-1-(1-methylcyclopropyl)ethyl)isoindoline-5-carboxamide]	< 100 nM	* (a Y value (shown as *) of 0<Y≤20%)
O=C1CCC(N2Cc3cc(C(=O)N[C@H](c4ccc(Cl)cc4F)C(F)(F)F)ccc3C2=O)C(=O)N1 (stereo partly drawn) [Example 79, N-((R)-1-(4-chloro-2-fluorophenyl)-2,2,2-trifluoroethyl)-2-(2,6-dioxopiperidin-3-yl)-1-oxoisoindoline-5-carboxamide]	< 100 nM	* (a Y value (shown as *) of 0<Y≤20%)
O=C1CCC(N2Cc3cc(C(=O)N[C@H](c4ccc(F)cc4F)C(F)(F)F)ccc3C2=O)C(=O)N1 (stereo partly drawn) [Example 80, N-((R)-1-(2,4-difluorophenyl)-2,2,2-trifluoroethyl)-2-(2,6-dioxopiperidin-3-yl)-1-oxoisoindoline-5-carboxamide]	< 100 nM	* (a Y value (shown as *) of 0<Y≤20%)
CN1CCC([C@@H](NC(=O)c2ccc3c(c2)CN(C2CCC(=O)NC2=O)C3=O)C(F)(F)F)CC1 (stereo partly drawn) [Example 81, 2-(2,6-dioxopiperidin-3-yl)-1-oxo-N-((R)-2,2,2-trifluoro-1-(1-methylpiperidin-4-yl)ethyl)isoindoline-5-carboxamide]	500 to 1000 nM	** (a Y value (shown as**) of 20%<Y≤35%)
O=C1CCC(N2Cc3cc(C(=O)N[C@H](c4cnccn4)C(F)(F)F)ccc3C2=O)C(=O)N1 (stereo partly drawn) [Example 82, 2-(2,6-dioxopiperidin-3-yl)-1-oxo-N-((R)-2,2,2-trifluoro-1-(pyrazin-2-yl)ethyl)isoindoline-5-carboxamide]	100 to 500 nM	** (a Y value (shown as**) of 20%<Y≤35%)
CC1([C@@H](NC(=O)c2ccc3c(c2)CN(C2CCC(=O)NC2=O)C3=O)C(F)(F)F)CCCC1 (stereo partly drawn) [Example 83, 2-(2,6-dioxopiperidin-3-yl)-1-oxo-N-((R)-2,2,2-trifluoro-1-(1-methylcyclopentyl)ethyl)isoindoline-5-carboxamide]	< 100 nM	* (a Y value (shown as *) of 0<Y≤20%)
O=C1CCC(N2Cc3cc(C(=O)N[C@H](c4ccccc4)C(F)(F)F)c(F)cc3C2=O)C(=O)N1 (stereo partly drawn) [Example 84, 2-(2,6-dioxopiperidin-3-yl)-6-fluoro-1-oxo-N-((R)-2,2,2-trifluoro-1-phenylethyl)isoindoline-5-carboxamide]	100 to 500 nM	** (a Y value (shown as**) of 20%<Y≤35%)
C[C@H](NC(=O)c1cc2c(cc1F)C(=O)N(C1CCC(=O)NC1=O)C2)c1ccccc1 (stereo partly drawn) [Example 85, 2-(2,6-dioxopiperidin-3-yl)-6-fluoro-1-oxo-N-((S)-1-phenylethyl)isoindoline-5-carboxamide]	500 to 1000 nM	*** (a Y value (shown as***) of 35%<Y<50%)
O=C1CCC(N2Cc3cc(C(=O)N[C@H](c4ccc(F)cc4OC(F)(F)F)C(F)(F)F)ccc3C2=O)C(=O)N1 (stereo partly drawn) [Example 86, 2-(2,6-dioxopiperidin-3-yl)-1-oxo-N-((R)-2,2,2-trifluoro-1-(4-fluoro-2-(trifluoromethoxy)phenyl)ethyl)isoindoline-5-carboxamide]	< 100 nM	* (a Y value (shown as *) of 0<Y≤20%)
CC(C)(C#N)[C@@H](NC(=O)c1ccc2c(c1)CN(C1CCC(=O)NC1=O)C2=O)C(F)(F)F (stereo partly drawn) [Example 87, N-((R)-3-cyano-1,1,1-trifluoro-3-methylbutan-2-yl)-2-(2,6-dioxopiperidin-3-yl)-1-oxoisoindoline-5-carboxamide]	100 to 500 nM	** (a Y value (shown as**) of 20%<Y≤35%)
O=C1CCC(N2Cc3cc(C(=O)N[C@H](c4ccccc4C(F)(F)F)C(F)(F)F)c(F)cc3C2=O)C(=O)N1 (stereo partly drawn) [Example 88, 2-(2,6-dioxopiperidin-3-yl)-6-fluoro-1-oxo-N-((R)-2,2,2-trifluoro-1-(2-(trifluoromethyl)phenyl)ethyl)isoindoline-5-carboxamide]	< 100 nM	* (a Y value (shown as *) of 0<Y≤20%)
O=C1CCC(N2Cc3c(ccc(C(=O)N[C@H](c4ccccc4)C(F)(F)F)c3F)C2=O)C(=O)N1 (stereo partly drawn) [Example 89, 2-(2,6-dioxopiperidin-3-yl)-4-fluoro-1-oxo-N-((R)-2,2,2-trifluoro-1-phenylethyl)isoindoline-5-carboxamide]	< 100 nM	** (a Y value (shown as**) of 20%<Y≤35%)
O=C1CCC(N2Cc3cc(C(=O)N[C@H](c4cccc(C(F)(F)F)c4)C(F)(F)F)c(F)cc3C2=O)C(=O)N1 (stereo partly drawn) [Example 90, 2-(2,6-dioxopiperidin-3-yl)-6-fluoro-1-oxo-N-((R)-2,2,2-trifluoro-1-(3-(trifluoromethyl)phenyl)ethyl)isoindoline-5-carboxamide]	100 to 500 nM	** (a Y value (shown as**) of 20%<Y≤35%)
O=C1CCC(N2Cc3cc(C(=O)N[C@H](c4ccc(Cl)cc4)C(F)(F)F)c(F)cc3C2=O)C(=O)N1 (stereo partly drawn) [Example 91, N-((R)-1-(4-chlorophenyl)-2,2,2-trifluoroethyl)-2-(2,6-dioxopiperidin-3-yl)-6-fluoro-1-oxoisoindoline-5-carboxamide]	< 100 nM	** (a Y value (shown as**) of 20%<Y≤35%)
O=C1CCC(N2Cc3cc(C(=O)N[C@H](c4ccc(F)cc4)C(F)(F)F)c(F)cc3C2=O)C(=O)N1 (stereo partly drawn) [Example 92, 2-(2,6-dioxopiperidin-3-yl)-6-fluoro-1-oxo-N-((R)-2,2,2-trifluoro-1-(4-fluorophenyl)ethyl)isoindoline-5-carboxamide]	100 to 500 nM	** (a Y value (shown as**) of 20%<Y≤35%)
O=C1CCC(N2Cc3c(ccc(C(=O)N[C@H](c4ccc(Cl)cc4)C(F)(F)F)c3F)C2=O)C(=O)N1 (stereo partly drawn) [Example 93, N-((R)-1-(4-chlorophenyl)-2,2,2-trifluoroethyl)-2-(2,6-dioxopiperidin-3-yl)-4-fluoro-1-oxoisoindoline-5-carboxamide]	< 100 nM	* (a Y value (shown as *) of 0<Y≤20%)
CC1([C@@H](NC(=O)c2ccc3c(c2)CN(C2CCC(=O)NC2=O)C3=O)C(F)(F)F)COC1 (stereo partly drawn) [Example 94, 2-(2,6-dioxopiperidin-3-yl)-1-oxo-N-((R)-2,2,2-trifluoro-1-(3-methyloxetan-3-yl)ethyl)isoindoline-5-carboxamide]	100 to 500 nM	** (a Y value (shown as**) of 20%<Y≤35%)
CC(C)(CO)[C@@H](NC(=O)c1ccc2c(c1)CN(C1CCC(=O)NC1=O)C2=O)C(F)(F)F (stereo partly drawn) [Example 95, 2-(2,6-dioxopiperidin-3-yl)-1-oxo-N-((R)-1,1,1-trifluoro-4-hydroxy-3,3-dimethylbutan-2-yl)isoindoline-5-carboxamide]	500 to 1000 nM	** (a Y value (shown as**) of 20%<Y≤35%)
O=C1CCC(N2Cc3c(ccc(C(=O)N[C@H](c4ccc(F)cc4)C(F)(F)F)c3F)C2=O)C(=O)N1 (stereo partly drawn) [Example 96, 2-(2,6-dioxopiperidin-3-yl)-4-fluoro-1-oxo-N-((R)-2,2,2-trifluoro-1-(4-fluorophenyl)ethyl)isoindoline-5-carboxamide]	< 100 nM	* (a Y value (shown as *) of 0<Y≤20%)
O=C1CCC(N2Cc3c(ccc(C(=O)N[C@H](c4cccc(C(F)(F)F)c4)C(F)(F)F)c3F)C2=O)C(=O)N1 (stereo partly drawn) [Example 97, 2-(2,6-dioxopiperidin-3-yl)-4-fluoro-1-oxo-N-((R)-2,2,2-trifluoro-1-(3-(trifluoromethyl)phenyl)ethyl)isoindoline-5-carboxamide]	100 to 500 nM	** (a Y value (shown as**) of 20%<Y≤35%)
